{"source": "patent US20260199213A1", "about": "“PEPTIDE HAVING ACTIVITY OF IMPROVING STATE OF SKIN, AND USE THEREOF” (CAREGEN CO., LTD., priority 2022, published 2026)", "type_in_all_cases": "cell-based", "key": {"fibronectin": {"tested_on": "fibronectin", "assay": "Fibronectin expression by RT-PCR in NIH3T3 cells", "protocol": "In this example, the aim was to confirm the effect of the peptide according to an example on improving endogenous skin aging, including improvement of wrinkles and enhancement of elasticity, etc., by evaluating the expression levels of collagen type 1 (Col1a1), fibronectin, elastin, and hyaluronic acid, which are known components of the dermis.\nSpecifically, NIH3T3 cells were seeded in a 6-well plate at a density of 3×10^5 cells/well and cultured for 24 hours. Next, the cells were washed once with serum-free DMEM media, and 10 μM, 50 μM or 1000 μM of a peptide consisting of an amino acid sequence of SEQ ID NO: 1 was dispensed into 1 mL of the serum-free media, and cultured in a CO2 incubator at 37° C. for 24 hours. Next, the culture was washed twice with PBS, and RNA was isolated from the culture using easy blue (iNtRON, Cat. No.: 17061, Korea). Next, using an RT kit (Enzynomics, Cat. NO.: RT200, Korea), the isolated RNA was reverse transcribed to synthesize the respective cDNA. Next, using the synthesized 1 ug cDNA, primers for Colla1, fibronectin, or elastin, and a PCR kit (Enzynomics, Cat. No.: P581T, Korea), polymerase chain reaction (PCR) was performed. Meanwhile, in this example, an untreated group was used as a control group, and a group to which […] was added was used as a positive control group, the nucleotide sequences of the primers used in this example are shown in Table 2 below.\nIn this example, the aim was to more specifically compare the effects of peptides according to an embodiment on improving intrinsic skin aging. To this end, a peptide consisting of an amino acid sequence of SEQ ID NO: 2, 3, or 4 having a sequence similar to a peptide according to an embodiment was set as a comparison group, and the expression levels of fibronectin and elastin were evaluated and compared in the same manner as in Example 2-1. […]"}, "procollagen I alpha": {"tested_on": "procollagen I alpha", "assay": "Procollagen I alpha protein level by Collagen ELISA in NIH3T3 cells", "details": "10 μM, 50 μM or 1000 μM peptide, 72 hours", "protocol": "(§1) Additionally, to evaluate the expression levels of procollagen I alpha and hyaluronic acid at the protein level, NIH3T3 cells or HaCaT cells were seeded at a density of 1×10^4 cells/well in 24-well plates and then cultured for 24 hours. Next, the cells were washed once with serum-free DMEM media, and 10 μM, 50 μM or 1000 μM of the peptide consisting of the amino acid sequence of SEQ ID NO: 1 was dispensed into 2 mL of the serum-free media, and cultured in a CO2 incubator at 37° C. for 72 hours. Next, the culture was centrifuged to settle the suspended matter, and the supernatant was transferred to an e-tube. Next, Collagen ELISA (abcam, Cat No.: ab210579, UK) and HA ELISA (ECHELON biosciences, Cat No.: K-1200, USA) were performed on the centrifuged culture. Meanwhile, in this example, an untreated group was used as the control group, and a group to which TGF-β1 or EGF was added was used as the positive control group."}, "hyaluronic acid": {"tested_on": "hyaluronic acid", "assay": "Hyaluronic acid level by HA ELISA in HaCaT cells", "details": "10 μM, 50 μM or 1000 μM peptide, 72 hours", "protocol": "as §1"}, "[1]": {"tested_on": "reactive oxygen species in NIH3T3 cells", "assay": "Reactive oxygen species increased by ultraviolet rays in NIH3T3 cells (DCF-DA, flow cytometry)", "details": "fibroblasts (NIH3T3); 6 J/cm^2 UV; 10 μM, 50 μM or 1000 μM peptide; 24 hours", "protocol": "In this example, the aim was to confirm the effect of the peptide according to an embodiment on the antioxidant effect in damaged skin, by evaluating the change in the level of reactive oxygen species in skin cells increased by ultraviolet irradiation.\nSpecifically, NIH3T3 cells or HaCaT cells were seeded in a 6-well plate at a density of 5×10^5 cells/well and cultured for 24 hours. Next, the cells were washed once with serum-free DMEM media, and 10 μM, 50 μM or 1000 μM of the peptide consisting of the amino acid sequence of SEQ ID NO: 1 was dispensed into 1 mL of the serum-free media, and cultured in a CO2 incubator at 37° C. for 1 hour. Next, the above culture was transferred to an e-tube, mixed with 1 ml of PBS, and dispensed into a well plate. Next, using a UV irradiator (VILBER LOURMAT, Cat No.: 3102-BSU, France), 6 J/cm^2 ultraviolet rays were irradiated to NIH3T3 cells, and 15 mJ/cm^2 ultraviolet rays were irradiated to HaCaT cells. Next, the PBS in the well plate was removed, 900 μL of the culture medium in which the peptides were dispensed was added, and the plate was cultured in a CO2 incubator at 37° C. for 24 hours. […] After washing the centrifuged cells with PBS, FL1 fluorescence values were measured through flow cytometry (FACS, BD, USA). […]"}}, "data": [{"substance": "GPRGDP [SEQ ID NO: 1]", "values": [{"measurement": "expression of fibronectin", "setting": "fibronectin; 10 μM, 50 μM or 1000 μM peptide, 24 hours, PCR, vs untreated group", "value": "increased"}, {"measurement": "expression of fibronectin (Example 2-2)", "setting": "fibronectin; comparison experiment, FIG. 5 and FIG. 6", "value": "increased"}, {"measurement": "fibronectin expression effect compared to the comparison group", "setting": "fibronectin; vs peptides of SEQ ID NO: 2, 3, or 4 (50 μM, 100 μM)", "value": "superior"}, {"measurement": "expression of procollagen I alpha at the protein level", "setting": "procollagen I alpha", "value": "increased"}, {"measurement": "expression of hyaluronic acid at the protein level", "setting": "hyaluronic acid", "value": "increased"}, {"measurement": "level of reactive oxygen species increased by ultraviolet irradiation", "setting": "[1]", "value": "reduced"}]}]}
